The supplement of paper PMC10307832

What was measured:
Experiment in all cases: relative viability (nuclei count vs DMSO), 5 days (fraction); higher = more cells survive
[1] = compound: O=C(NC1CCNCC1)c1n[nH]cc1NC(=O)c1c(Cl)cccc1Cl [AT-7519] + COc1cccc2cc(-c3nc([C@H]4CC[C@H](C(=O)O)CC4)n4ncnc(N)c34)[nH]c12 [OSI-027] (partner 0.5 µM)
Outline: (§1)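 Lung cancer cell lines were pin-tool dosed in 1536-well plates on the day after seeding, with either a lone drug or a fixed anchor-drug dose plus five library-drug doses (not always all listed) in √10 steps. Nuclei were counted on 4× images after 5 days. Relative viability is the ratio of treated-well to vehicle-well nuclei counts, with each value a median of duplicate plates.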

[2] = compound: O=C(NC1CCNCC1)c1n[nH]cc1NC(=O)c1c(Cl)cccc1Cl [AT-7519] + CS(=O)(=O)CCNCc1ccc(-c2ccc3ncnc(Nc4ccc(OCc5cccc(F)c5)c(Cl)c4)c3c2)o1 [Lapatinib] (partner 2 µM)
Outline: as §1

[3] = compound: O=C(NC1CCNCC1)c1n[nH]cc1NC(=O)c1c(Cl)cccc1Cl [AT-7519] + Nc1nc2[nH]cc(CCc3ccc(C(=O)N[C@@H](CCC(=O)O)C(=O)O)cc3)c2c(=O)[nH]1 [Pemetrexed] (partner 0.2 µM)
Outline: as §1

[4] = compound: C1=CC2=C(C=C(C(=C2N=C1)O)N=NC3=CC4=C(C=C3)C=C(C=C4)S(=O)(=O)O)S(=O)(=O)O + COc1cc2c(Oc3ccc(NC(=O)C4(C(=O)Nc5ccc(F)cc5)CC4)cc3F)ccnc2cc1OCCCN1CCOCC1 [Foretinib] (partner 0.25 µM)
Outline: as §1

Cell Line | relative viability ([1]; first compound 0.01 µM) | relative viability ([1]; first compound 0.03162 µM) | relative viability ([1]; first compound 0.3162 µM) | relative viability ([1]; first compound 1 µM) | relative viability ([2]; first compound 0.01 µM) | relative viability ([2]; first compound 0.03162 µM) | relative viability ([2]; first compound 0.3162 µM) | relative viability ([2]; first compound 1 µM) | relative viability ([3]; first compound 0.01 µM) | relative viability ([3]; first compound 0.03162 µM) | relative viability ([3]; first compound 0.3162 µM) | relative viability ([3]; first compound 1 µM) | relative viability ([4]; first compound 0.08 µM) | relative viability ([4]; first compound 0.253 µM) | relative viability ([4]; first compound 0.8 µM) | relative viability ([4]; first compound 2.53 µM) | relative viability ([4]; first compound 8 µM)
PC-14 | 0.725 | 0.701 | 0.691 | 0.125 | 0.269 | 0.302 | 0.313 | 0.296 | 0.138 | 0.135 | 0.118 | 0.103 | 1.16 | 0.905 | 0.815 | 0.971 | 1.11
RERF-LC-KJ | 0.572 | 0.53 | 0.54 | 0.25 | 0.847 | 0.922 | 0.86 | 0.851 | 0.448 | 0.473 | 0.414 | 0.303 | 1.02 | 0.835 | 0.837 | 0.999 | 0.844
SK-LU-1 | 0.356 | 0.315 | 0.282 | 0.168 | 0.726 | 0.943 | 0.766 | 0.506 | 0.99 | 1 | 0.998 | 0.439 | 1.01 | 0.768 | 0.787 | 0.787 | 0.889
SK-MES-1 | 0.615 | 0.58 | 0.564 | 0.332 | 0.455 | 0.468 | 0.451 | 0.392 | 1.12 | 1.04 | 0.982 | 0.798 | 0.86 | 0.856 | 0.874 | 0.761 | 1.15
SW 1573 | 0.604 | 0.659 | 0.436 | 0.107 | 1.08 | 1.18 | 1.07 | 0.569 | 0.745 | 0.833 | 0.401 | 0.126 | 1.1 | 1.02 | 1.02 | 1.01 | 0.444
